{"source": "patent US12187758B2", "about": "(ROME Therapeutics, Inc., priority 2022, dated 2025)", "key": {"[1]": {"tested_on": "interferon-stimulated gene (ISG) response", "test": "B6/JGpt-Trex1em1Cd1194/Gpt mouse model (ISG score)", "assay_type": "in vivo", "conditions": "B6/JGpt-Trex1em1Cd1194/Gpt mice, 100 mg/kg p.o. daily for 5 days", "experimental": "Exemplary compounds were tested for the ability to alter the interferon-stimulated gene (ISG) response in a B6/JGpt-Trex1em1Cd1194/Gpt mouse model. Assay procedures and results are described below.\nNine 8-10 week old B6/JGpt-Trex1em1Cd1194/Gpt mice were acclimated to the lab for at least 5 days. Compound 2 was prepared daily in a 20% PEG400 (pH 3.5) solution for p.o. administration. Compound 2 was administered for 5 days.\n(§1) Compound 2 was administered daily from Day 1 to Day 5. All mice were euthanized 1 hour after the last dose administration on Day 5. Heart and skin were harvested and snap frozen in liquid nitrogen, and plasma (EDTA) was collected for bioanalysis. Total RNA was isolated and ISG score for each sample was determined as in Part IIIa of Example 108.\nFifteen 6-8 week old B6/JGpt-Trex1em1Cd1194/Gpt mice were acclimated to the lab for at least 5 days. Compound 67 was prepared daily in a 20% PEG400 (pH 3.5) solution for p.o. administration. […] was administered for 5 days.\nas §1, with “67” for “2”"}, "[2]": {"tested_on": "interferon-stimulated gene (ISG) response", "test": "In vivo decitabine challenge model in BALB/c mice", "conditions": "decitabine i.p. 5 mg/kg, RNAseq", "experimental": "Thirty 9-11 week old BALB/c mice were acclimated to the lab for at least 5 days. Compounds 2, 40 and 67 were prepared in a 20% PEG400 (pH 3.5) solution for p.o. administration, compounds were prepared no more than 30 minutes prior to daily dosing. Decitabine (Sigma) was dissolved in sterile PBS (pH 7.4) and dosed within 30 minutes of preparation of the solution. Doses of both the compound and decitabine were administered once a day, every day from Day 0 to day 4. On Day 0, mice were split into […] of five mice and given their first dose of decitabine (i.p., 5 mg/kg) and compound. Dosing groups were as in the following table (all doses in mg/kg): [table] Decitabine (i.p., 5 mg/kg) and compounds 2, 40 or 67 were administered daily from […] to Day 4. All mice were euthanized 1 hour after the last dose administration on Day 4. Spleen and kidneys were harvested and snap frozen in liquid nitrogen, and plasma (EDTA) was collected for bioanalysis. Total RNA was isolated using the PureLink RNA Mini Kit (ThermoFisher) and prepared for RNAseq using the TruSeq Stranded mRNA platform (Illumina). 50M Stranded reads were collected on an Illumina HiSeq system. Data were analyzed as follows: RNA sequencing reads were aligned to the […] reference genome using the STAR RNA-seq aligner (Dobin et al., 2013). Expression of each transcript was quantified using Salmon (Patro, et al. 2015) TPM values for each transcript. These transcript-level TPM values were aggregated by gene to get gene-level TPM values, and log-transformed these values. Mouse orthologs for each gene in the list of ISG-associated genes in the human genome from Liu et al., 2019 using Ensembl BioMart (Kinsella et al., 2011) were identified. The ISG score for each sample was calculated as the median log-transformed TPM value across all genes in this ISG gene set."}, "human PBMC": {"tested_on": "human PBMC", "test": "Decitabine-stimulated human PBMC assay", "assay_type": "cell-based", "conditions": "PBMCs, 5 days; for IFN-β production: anti-CD3/anti-CD28, decitabine 10 μM, FIGS. 3A and 3B", "experimental": "EasySep buffer (32 mL, […] Technologies, cat. #20144) was used to dilute 8 mL of LRSC buffy coat (from fresh Leukopak) with gentle mixing. The diluted buffy coat (20 mL) was transferred into each of two SepMate 50 tubes, and the tubes were filled with 15 mL of Lyphoprep ([…], cat. #07851) density gradient. The SepMate tubes were then centrifuged at 1200 G for 10 minutes at room temperature with the brake on. The top layer of supernatant was collected in SepMate tubes by quickly pouring it into a new 50 mL conical tube. The PBMCs were washed with EasySep buffer×2 by centrifuging at 300 G for 5 minutes. The cells were resuspended in 30 mL of EasySep and centrifuged at 100 G for 5 minutes with the brake off, and the platelets were removed. The cells were then resuspended in 6 mL of 1×RBC lysis buffer (Invitrogen) and incubated at 37° C. for 5 minutes. 25 mL of EasySep buffer was then mixed into the tube and centrifuged at 300 G for 5 minutes. The cells were resuspended in 10 mL of EasySep buffer and the cells were then counted with Cellometer (AO/PI). The PBMCs were resuspended in RPMI1640 (ThermoFisher)+ 10% FBS (HyClone)+μ/s at 3×10^6/mL. The PBMCs (100 μL, 300 k PBMCs) were then seeded in a 96-well flat bottom microplate (Corning) that had been precoated with 100 μL of anti-CD3 antibody (10 μg/mL in PBS, Biolegend) or PBS at 4° C., one day before the assay was commenced.\nTo each well the following solutions were added 1) 100 μL of cells (final cell number per well is 3×10^5 cell/well); 2) 25 μL of anti-CD28 antibody at 6× (5 μg/mL final concentration, Biolegend); 3) 25 μL of decitabine at 6× (10 μM final concentration); and 4) Compound in DMSO was dispensed directly into each well with a d300e digital dispenser (Tecan). The final concentration of DMSO for each well was normalized to 0.3%. The plate was incubated at 37° C. without any agitation for 5 days. Samples were collected 120 hours after incubation to determine IFN-β […] levels using a U-PLEX Human IFN-β Assay Sector (5PL) (MSD, cat. #K151VIK-2).\nAfter 5 days, the plate was spun down at 100×G for 5 minutes. Supernatants (100 μL) were collected for interferon R (IFN-0) analysis using the MSD assay noted above, and any residual supernatant was stored at −80° C."}, "pTBK1": {"tested_on": "pTBK1", "test": "pTBK1 level with and without UVB exposure (Example 111)", "assay_type": "cell-based", "conditions": "varying concentrations of compound, alone or after UVB exposure (FIGS. 4B and 4C)"}}}
{"smiles": "Nc1ccn([C@H]2C[C@H](O)[C@](CO)(CCl)O2)c(=O)n1", "note": "[Compound 2, 4-amino-1-((2R,4S,5R)-5-(chloromethyl)-4-hydroxy-5-(hydroxymethyl)tetrahydrofuran-2-yl)pyrimidin-2(1H)-one]", "values": [{"measurement": "ISG score in the heart and skin", "setting": "[1]", "value": "lowers the ISG score"}, {"measurement": "change in the ISG Score in the spleen and kidney", "setting": "[2]; compound 100 mg/kg p.o. daily", "value": "show a change in the ISG Score in the spleen and kidney"}, {"measurement": "IFN-β production", "setting": "human PBMC", "value": "showed inhibition of IFN-β"}, {"measurement": "level of pTBK1", "setting": "pTBK1", "value": "varies in a dose-dependent fashion"}]}
{"smiles": "Nc1nc(=O)n([C@H]2C[C@H](O)[C@](CO)(CCl)O2)cc1F", "note": "[Compound 14, 4-amino-1-((2R,4S,5R)-5-(chloromethyl)-4-hydroxy-5-(hydroxymethyl)tetrahydrofuran-2-yl)-5-fluoropyrimidin-2(1H)-one]", "values": [{"measurement": "level of pTBK1", "setting": "pTBK1", "value": "varies in a dose-dependent fashion"}]}
{"smiles": "C#C[C@]1(CO)O[C@@H](n2cnc3c(N)nc(Cl)nc32)C[C@@H]1O", "note": "[Compound 25]", "values": [{"measurement": "IFN-β production", "setting": "human PBMC", "value": "activated production of IFN-β"}]}
{"smiles": "Nc1ccn([C@@H]2O[C@@](CO)(CCl)[C@@H](O)[C@@H]2F)c(=O)n1", "note": "[Compound 40, 4-amino-1-((2R,3S,4R,5R)-5-(chloromethyl)-3-fluoro-4-hydroxy-5-(hydroxymethyl)tetrahydrofuran-2-yl)pyrimidin-2(1H)-one]", "values": [{"measurement": "change in the ISG Score in the spleen and kidney", "setting": "[2]; compound 100 mg/kg p.o. daily", "value": "show a change in the ISG Score in the spleen and kidney"}, {"measurement": "IFN-β production", "setting": "human PBMC", "value": "showed inhibition of IFN-β"}, {"measurement": "cell viability", "setting": "human PBMC; decitabine 10 μM", "value": "some cell viability losses at higher concentrations"}, {"measurement": "level of pTBK1", "setting": "pTBK1", "value": "varies in a dose-dependent fashion"}]}
{"smiles": "CC[C@]1(CO)O[C@@H](n2ccc(N)nc2=O)C[C@@H]1O", "note": "[Compound 44, 4-amino-1-((2R,4S,5R)-5-ethyl-4-hydroxy-5-(hydroxymethyl)tetrahydrofuran-2-yl)pyrimidin-2(1H)-one]", "values": [{"measurement": "level of pTBK1", "setting": "pTBK1", "value": "varies in a dose-dependent fashion"}]}
{"smiles": "Nc1nc(=O)n([C@@H]2O[C@@](CO)(CCl)[C@@H](O)[C@@H]2F)cc1F", "note": "[Compound 67, 4-amino-1-[(2R,3S,4R,5R)-5-(chloromethyl)-3-fluoro-4-hydroxy-5-(hydroxymethyl)oxolan-2-yl]-5-fluoropyrimidin-2-one]", "values": [{"measurement": "ISG score in the heart and skin", "setting": "[1]", "value": "lowers the ISG score"}, {"measurement": "change in the ISG Score in the spleen and kidney", "setting": "[2]; compound 30 mg/kg p.o. daily", "value": "show a change in the ISG Score in the spleen and kidney"}, {"measurement": "change in the ISG Score in the spleen and kidney", "setting": "[2]; compound 100 mg/kg p.o. daily", "value": "show a change in the ISG Score in the spleen and kidney"}]}
